From ChEMBL document CHEMBL4808193, “[11]-Chaetoglobosins from Pseudeurotium bakeri Induce G2/M Cell Cycle Arrest and Apoptosis in Human Cancer Cells” (J Nat Prod, 2021)
Structures can show the parent of a compound that is named as a salt.

Key:
A549 = test: Cytotoxicity against human A549 cells assessed as reduction in cell viability by MTT assay; format: functional, cell-based
A-427 [1] = test: Cytotoxicity against human A-427 cells assessed as reduction in cell viability by MTT assay; format: functional, cell-based
HCT-116 = test: Cytotoxicity against human HCT-116 cells assessed as reduction in cell viability by MTT assay; format: functional, cell-based
HT-29 = test: Cytotoxicity against human HT-29 cells assessed as reduction in cell viability by MTT assay; format: functional, cell-based
MCF7 [2] = test: Cytotoxicity against human MCF7 cells assessed as reduction in cell viability by MTT assay; format: functional, cell-based
HeLa = test: Cytotoxicity against human HeLa cells assessed as reduction in cell viability by MTT assay; format: functional, cell-based
HepG2 = test: Cytotoxicity against human HepG2 cells assessed as reduction in cell viability by MTT assay; format: functional, cell-based
L02 = test: Cytotoxicity against human L02 cells assessed as reduction in cell viability by MTT assay; format: cell-based
A-427 [3] = test: Induction of apoptosis in human A-427 cells assessed as late apoptotic cells at 10 uM measured after 24 hrs by Annexin V-FITC/propidium iodide staining based flow cytometric analysis (reference value: 2.06%); format: functional
A-427 [4] = test: Induction of apoptosis in human A-427 cells assessed as late apoptotic cells at 5 uM measured after 24 hrs by Annexin V-FITC/propidium iodide staining based flow cytometric analysis (reference value: 2.06%); format: functional
A-427 [5] = test: Induction of apoptosis in human A-427 cells assessed as late apoptotic cells at 2.5 uM measured after 24 hrs by Annexin V-FITC/propidium iodide staining based flow cytometric analysis (reference value: 2.06%); format: functional
A-427 [6] = test: Induction of apoptosis in human A-427 cells assessed as early apoptotic cells at 10 uM measured after 24 hrs by Annexin V-FITC/propidium iodide staining based flow cytometric analysis (reference value: 6.58%); format: functional
A-427 [7] = test: Induction of apoptosis in human A-427 cells assessed as early apoptotic cells at 5 uM measured after 24 hrs by Annexin V-FITC/propidium iodide staining based flow cytometric analysis (reference value: 6.58%); format: functional
A-427 [8] = test: Induction of apoptosis in human A-427 cells assessed as early apoptotic cells at 2.5 uM measured after 24 hrs by Annexin V-FITC/propidium iodide staining based flow cytometric analysis (reference value: 6.58%); format: functional
MCF7 [9] = test: Induction of apoptosis in human MCF7 cells assessed as late apoptotic cells at 15 uM measured after 24 hrs by Annexin V-FITC/propidium iodide staining based flow cytometric analysis (reference value: 0.38%); format: functional
MCF7 [10] = test: Induction of apoptosis in human MCF7 cells assessed as late apoptotic cells at 10 uM measured after 24 hrs by Annexin V-FITC/propidium iodide staining based flow cytometric analysis (reference value: 0.38%); format: functional
MCF7 [11] = test: Induction of apoptosis in human MCF7 cells assessed as late apoptotic cells at 5 uM measured after 24 hrs by Annexin V-FITC/propidium iodide staining based flow cytometric analysis (reference value: 0.38%); format: functional
MCF7 [12] = test: Induction of apoptosis in human MCF7 cells assessed as early apoptotic cells at 15 uM measured after 24 hrs by Annexin V-FITC/propidium iodide staining based flow cytometric analysis (reference value: 1.49%); format: functional
MCF7 [13] = test: Induction of apoptosis in human MCF7 cells assessed as early apoptotic cells at 10 uM measured after 24 hrs by Annexin V-FITC/propidium iodide staining based flow cytometric analysis (reference value: 1.49%); format: functional
MCF7 [14] = test: Induction of apoptosis in human MCF7 cells assessed as early apoptotic cells at 5 uM measured after 24 hrs by Annexin V-FITC/propidium iodide staining based flow cytometric analysis (reference value: 1.49%); format: functional
A-427 [15] = test: Cell cycle arrest in human A-427 cells assessed as accumulation at G2/M phase at 10 uM measured after 24 hrs by PI staining based flow cytometry (reference value: 18.80%); format: functional
A-427 [16] = test: Cell cycle arrest in human A-427 cells assessed as accumulation at S phase at 10 uM measured after 24 hrs by PI staining based flow cytometry (reference value: 33.14%); format: functional
A-427 [17] = test: Cell cycle arrest in human A-427 cells assessed as accumulation at G0/G1 phase at 10 uM measured after 24 hrs by PI staining based flow cytometry (reference value: 48.06%); format: functional
A-427 [18] = test: Cell cycle arrest in human A-427 cells assessed as accumulation at G2/M phase at 5 uM measured after 24 hrs by PI staining based flow cytometry (reference value: 18.80%); format: functional
A-427 [19] = test: Cell cycle arrest in human A-427 cells assessed as accumulation at S phase at 5 uM measured after 24 hrs by PI staining based flow cytometry (reference value: 33.14%); format: functional
A-427 [20] = test: Cell cycle arrest in human A-427 cells assessed as accumulation at G0/G1 phase at 5 uM measured after 24 hrs by PI staining based flow cytometry (reference value: 48.06%); format: functional
A-427 [21] = test: Cell cycle arrest in human A-427 cells assessed as accumulation at G2/M phase at 2.5 uM measured after 24 hrs by PI staining based flow cytometry (reference value: 18.80%); format: functional
A-427 [22] = test: Cell cycle arrest in human A-427 cells assessed as accumulation at S phase at 2.5 uM measured after 24 hrs by PI staining based flow cytometry (reference value: 33.14%); format: functional
A-427 [23] = test: Cell cycle arrest in human A-427 cells assessed as accumulation at G0/G1 phase at 2.5 uM measured after 24 hrs by PI staining based flow cytometry (reference value: 48.06%); format: functional
MCF7 [24] = test: Cell cycle arrest in human MCF7 cells assessed as accumulation at G2/M phase at 4.5 uM measured after 24 hrs by PI staining based flow cytometry (reference value: 15.28%); format: functional
MCF7 [25] = test: Cell cycle arrest in human MCF7 cells assessed as accumulation at S phase at 4.5 uM measured after 24 hrs by PI staining based flow cytometry (reference value: 34.14%); format: functional
MCF7 [26] = test: Cell cycle arrest in human MCF7 cells assessed as accumulation at G0/G1 phase at 4.5 uM measured after 24 hrs by PI staining based flow cytometry (reference value: 50.58%); format: functional
MCF7 [27] = test: Cell cycle arrest in human MCF7 cells assessed as accumulation at G2/M phase at 3 uM measured after 24 hrs by PI staining based flow cytometry (reference value: 15.28%); format: functional
MCF7 [28] = test: Cell cycle arrest in human MCF7 cells assessed as accumulation at S phase at 3 uM measured after 24 hrs by PI staining based flow cytometry (reference value: 34.14%; format: functional
MCF7 [29] = test: Cell cycle arrest in human MCF7 cells assessed as accumulation at G0/G1 phase at 3 uM measured after 24 hrs by PI staining based flow cytometry (reference value: 50.58%); format: functional
MCF7 [30] = test: Cell cycle arrest in human MCF7 cells assessed as accumulation at G2/M phase at 1.5 uM measured after 24 hrs by PI staining based flow cytometry (reference value: 15.28%); format: functional
MCF7 [31] = test: Cell cycle arrest in human MCF7 cells assessed as accumulation at S phase at 1.5 uM measured after 24 hrs by PI staining based flow cytometry (reference value: 34.14%); format: functional
MCF7 [32] = test: Cell cycle arrest in human MCF7 cells assessed as accumulation at G0/G1 phase at 1.5 uM measured after 24 hrs by PI staining based flow cytometry (reference value: 50.58%); format: functional

CO[C@@H]1CC(=O)C[C@@H](C)C/C=C/[C@H]2C=C(C)[C@@H](C)[C@H]3[C@H](Cc4c[nH]c5ccccc45)NC(=O)[C@]32C1=O
IC50 (A549): 23.3 µM
IC50 (A-427 [1]): > 50 µM
IC50 (HCT-116): 30.9 µM
IC50 (HT-29): 43.8 µM
IC50 (MCF7 [2]): > 50 µM
IC50 (HeLa): > 50 µM
IC50 (HepG2): 44.4 µM
IC50 (L02): > 50 µM

CC(=O)O[C@@H]1CC(=O)C[C@@H](C)C/C=C/[C@H]2[C@H](O)C(C)=C(C)[C@H]3[C@H](Cc4c[nH]c5ccccc45)NC(=O)[C@@]23C1=O
IC50 (A549): 15.9 µM
IC50 (A-427 [1]): > 50 µM
IC50 (HCT-116): 21.2 µM
IC50 (HT-29): > 50 µM
IC50 (MCF7 [2]): > 50 µM
IC50 (HeLa): > 50 µM
IC50 (HepG2): > 50 µM
IC50 (L02): > 50 µM

CO[C@@H]1/C=C\[C@@H](C)C/C=C/[C@H]2[C@H](O)C(C)=C(C)[C@H]3[C@H](Cc4c[nH]c5ccccc45)NC(=O)[C@@]23C(=O)C1
IC50 (A549): 21.5 µM
IC50 (A-427 [1]): > 50 µM
IC50 (HCT-116): 26.1 µM
IC50 (HT-29): > 50 µM
IC50 (MCF7 [2]): > 50 µM
IC50 (HeLa): 41.5 µM
IC50 (HepG2): > 50 µM
IC50 (L02): > 50 µM

COc1cccc2c1C(=O)c1c(O)c3c(c(O)c1C2=O)C[C@@](O)(C(=O)CO)C[C@@H]3O[C@H]1C[C@H](N)[C@H](O)[C@H](C)O1 [DOXORUBICIN HYDROCHLORIDE]
IC50 (HCT-116): 2.9 µM
IC50 (HT-29): 2.6 µM
IC50 (HepG2): 0.4 µM
IC50 (L02): 0.7 µM

CC1=C[C@@H]2/C=C/C[C@H](C)CCCCC(=O)[C@]23C(=O)N[C@@H](Cc2c[nH]c4ccccc24)[C@@H]3[C@@H]1C
IC50 (A549): > 50 µM
IC50 (A-427 [1]): 13.8 µM
IC50 (HCT-116): 38.5 µM
IC50 (HT-29): > 50 µM
IC50 (MCF7 [2]): > 50 µM
IC50 (HeLa): 20.3 µM
IC50 (HepG2): > 50 µM
IC50 (L02): > 50 µM

CC1=C(C)[C@H]2[C@H](Cc3c[nH]c4ccccc34)NC(=O)[C@]23C(=O)CCCC[C@@H](C)C/C=C/[C@H]3[C@@H]1O
IC50 (A549): > 50 µM
IC50 (A-427 [1]): > 50 µM
IC50 (HCT-116): > 50 µM
IC50 (HT-29): > 50 µM
IC50 (MCF7 [2]): > 50 µM
IC50 (HeLa): 18.9 µM
IC50 (HepG2): > 50 µM
IC50 (L02): 46.3 µM

CC1=C(C)[C@H]2[C@H](Cc3c[nH]c4ccccc34)NC(=O)[C@]23C(=O)/C=C\CC[C@@H](C)C/C=C/[C@H]3[C@@H]1O
IC50 (A549): 6.9 µM
IC50 (A-427 [1]): 7.5 µM
IC50 (HCT-116): 11.2 µM
IC50 (HT-29): 8.8 µM
IC50 (MCF7 [2]): 6.8 µM
IC50 (HeLa): 10.1 µM
IC50 (HepG2): 10.7 µM
IC50 (L02): 41.8 µM
Activity (A-427 [3]): 33.54%
Activity (A-427 [4]): 33.06%
Activity (A-427 [5]): 32.65%
Activity (A-427 [6]): 31.16%
Activity (A-427 [7]): 20.64%
Activity (A-427 [8]): 18.24%
Activity (MCF7 [9]): 21.26%
Activity (MCF7 [10]): 15.06%
Activity (MCF7 [11]): 11.69%
Activity (MCF7 [12]): 12.83%
Activity (MCF7 [13]): 11.17%
Activity (MCF7 [14]): 10.35%
Activity (A-427 [15]): 42.41%
Activity (A-427 [16]): 22.03%
Activity (A-427 [17]): 35.56%
Activity (A-427 [18]): 37.05%
Activity (A-427 [19]): 21.59%
Activity (A-427 [20]): 41.36%
Activity (A-427 [21]): 34.23%
Activity (A-427 [22]): 20.59%
Activity (A-427 [23]): 45.18%
Activity (MCF7 [24]): 82.7%
Activity (MCF7 [25]): 8.06%
Activity (MCF7 [26]): 9.24%
Activity (MCF7 [27]): 71.45%
Activity (MCF7 [28]): 11.19%
Activity (MCF7 [29]): 17.36%
Activity (MCF7 [30]): 58.41%
Activity (MCF7 [31]): 17.94%
Activity (MCF7 [32]): 23.65%

C=C1[C@@H](C)[C@H]2[C@H](Cc3c[nH]c4ccccc34)NC(=O)[C@]23C(=O)CCCC[C@@H](C)C/C=C/[C@H]3[C@@H]1O
IC50 (A549): 40.4 µM
IC50 (A-427 [1]): > 50 µM
IC50 (HCT-116): 45.3 µM
IC50 (HT-29): > 50 µM
IC50 (MCF7 [2]): > 50 µM
IC50 (HeLa): > 50 µM
IC50 (HepG2): > 50 µM
IC50 (L02): > 50 µM

C[C@H]1C/C=C/[C@H]2C(=O)[C@H](C)[C@@H](C)[C@H]3[C@H](Cc4c[nH]c5ccccc45)NC(=O)[C@]32C(=O)CCCC1
IC50 (A549): > 50 µM
IC50 (A-427 [1]): > 50 µM
IC50 (HCT-116): > 50 µM
IC50 (HT-29): > 50 µM
IC50 (MCF7 [2]): > 50 µM
IC50 (HeLa): > 50 µM
IC50 (HepG2): > 50 µM
IC50 (L02): > 50 µM

CC1=C[C@@H]2/C=C/C[C@H](C)CC(=O)[C@@H]3O[C@H]3C(=O)[C@]23C(=O)N[C@@H](Cc2c[nH]c4ccccc24)[C@@H]3[C@@H]1C
IC50 (A549): 44 µM
IC50 (A-427 [1]): > 50 µM
IC50 (HCT-116): > 50 µM
IC50 (HT-29): 40.4 µM
IC50 (MCF7 [2]): > 50 µM
IC50 (HeLa): > 50 µM
IC50 (HepG2): 37.3 µM
IC50 (L02): > 50 µM
